Experiment: Solubility of electron donor dye precursors in ethyl acetate
Type: physicochemical
Source text: For reference, the following Table 1 lists electron donor dye precursor compounds, and includes the corresponding solubility in ethyl acetate, which are used in the following examples.

Row | Solubility in ethyl acetate | SMILES
1 | 5 g/100 grams | CCN(CC)c1ccc2c(c1)Oc1cc(C)ccc1C21OC(=O)c2ccccc21 [Sample D-2]
2 | 4 g/100 grams | CCN(CC)c1ccc2c(c1)Oc1cc(C)c(Nc3ccccc3)cc1C21OC(=O)c2ccccc21 [Sample D-3]
3 | 20 g/100 grams | CCCCCCOc1ccc2c(c1)Oc1cc(OCCCCCC)ccc1C21OC(c2cccs2)=Nc2ccccc21 [Sample D-5]
